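Following 48 hours of exposure in 96-well plates, responses at five concentrations were used to interpolate endpoints linearly. TGI is the concentration that stops growth completely.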
Tested on: SK-MEL-2 melanoma
Assay: inhibition of tumour cell growth, NCI panel, 48 h

In the case of `Cc1cccc(C[C@@]2(SCc3ccccc3)C(C)(C)[C@@H]3CC[C@@]2(C)C3)n1`, the TGI is reported as 27.8 µM.

Tested on: SK-MEL-28 melanoma
Assay: inhibition of tumour cell growth, NCI panel, 48 h

First: COC(=O)C1CC(C=[N+](C)C)=C(SC)N1 (configuration not stated)
Second: Cc1cccc(C[C@@]2(SCc3ccccc3)C(C)(C)[C@@H]3CC[C@@]2(C)C3)n1
The TGI of the first is higher: greater than 100 µM for the first, 45.3 µM for the second.

Compared with `Brc1ccc2c3c1[C@@H]1O[C@@H]1c1cccc(c1-3)[C@@H]1O[C@H]21`, `O=c1c2cc(I)ccc2[nH]c(=S)n1Cc1ccccc1` is higher in TGI: 50.3 µM for the first, greater than 100 µM for the second.

`O=C(O)Cc1ccc2nc(COC(=O)c3ccccc3)sc2c1` and `CCOC(=O)c1cnc2[nH]ccn2c1=O` cannot be ordered by TGI: greater than 100 µM for the first, greater than 10 µM for the second.

Compound `N#CC(C#N)=C1CCCS(=O)(=O)c2ccccc21` has a TGI greater than 100 µM.

Tested on: SK-MEL-5 melanoma
Assay: inhibition of tumour cell growth, NCI panel, 48 h

First: COC(=O)C1CC(C=[N+](C)C)=C(SC)N1 (configuration not stated)
Second: Cc1cccc(C[C@@]2(SCc3ccccc3)C(C)(C)[C@@H]3CC[C@@]2(C)C3)n1
The TGI of the first is higher: greater than 100 µM for the first, 29.4 µM for the second.

Going from `Brc1ccc2c3c1[C@@H]1O[C@@H]1c1cccc(c1-3)[C@@H]1O[C@H]21` to `O=c1c2cc(I)ccc2[nH]c(=S)n1Cc1ccccc1`, the TGI rises from 33.4 µM to greater than 100 µM.

`O=C(O)Cc1ccc2nc(COC(=O)c3ccccc3)sc2c1` and `CCOC(=O)c1cnc2[nH]ccn2c1=O` cannot be ordered by TGI: greater than 100 µM for the first, greater than 10 µM for the second.

Tested on: SK-OV-3 ovarian
Assay: inhibition of tumour cell growth, NCI panel, 48 h

Going from `COC(=O)C1CC(C=[N+](C)C)=C(SC)N1` (configuration not stated) to `Cc1cccc(C[C@@]2(SCc3ccccc3)C(C)(C)[C@@H]3CC[C@@]2(C)C3)n1`, the TGI falls from greater than 100 µM to 51.4 µM.

`Brc1ccc2c3c1[C@@H]1O[C@@H]1c1cccc(c1-3)[C@@H]1O[C@H]21` and `O=c1c2cc(I)ccc2[nH]c(=S)n1Cc1ccccc1` cannot be ordered by TGI: greater than 71.2 µM for the first, greater than 100 µM for the second.

`O=C(O)Cc1ccc2nc(COC(=O)c3ccccc3)sc2c1` and `CCOC(=O)c1cnc2[nH]ccn2c1=O` cannot be ordered by TGI: greater than 100 µM for the first, greater than 10 µM for the second.

`N#CC(C#N)=C1CCCS(=O)(=O)c2ccccc21` gave a TGI greater than 100 µM.

Tested on: SN12C renal
Assay: inhibition of tumour cell growth, NCI panel, 48 h

Compared with `Brc1ccc2c3c1[C@@H]1O[C@@H]1c1cccc(c1-3)[C@@H]1O[C@H]21`, `O=c1c2cc(I)ccc2[nH]c(=S)n1Cc1ccccc1` is higher in TGI: 45.9 µM for the first, greater than 100 µM for the second.

First: O=C(O)Cc1ccc2nc(COC(=O)c3ccccc3)sc2c1
Second: Cc1cccc(C[C@@]2(SCc3ccccc3)C(C)(C)[C@@H]3CC[C@@]2(C)C3)n1
The TGI of the first is higher: greater than 100 µM for the first, 31.5 µM for the second.

`N#CC(C#N)=C1CCCS(=O)(=O)c2ccccc21` and `CCOC(=O)c1cnc2[nH]ccn2c1=O` cannot be ordered by TGI: greater than 100 µM for the first, greater than 10 µM for the second.

Tested on: SNB-19 CNS
Assay: inhibition of tumour cell growth, NCI panel, 48 h

Going from `COC(=O)C1CC(C=[N+](C)C)=C(SC)N1` (configuration not stated) to `Cc1cccc(C[C@@]2(SCc3ccccc3)C(C)(C)[C@@H]3CC[C@@]2(C)C3)n1`, the TGI falls from greater than 100 µM to 33.1 µM.

Going from `Brc1ccc2c3c1[C@@H]1O[C@@H]1c1cccc(c1-3)[C@@H]1O[C@H]21` to `O=c1c2cc(I)ccc2[nH]c(=S)n1Cc1ccccc1`, the TGI rises from 60.9 µM to 98.9 µM (1.6-fold).

`O=C(O)Cc1ccc2nc(COC(=O)c3ccccc3)sc2c1` and `CCOC(=O)c1cnc2[nH]ccn2c1=O` cannot be ordered by TGI: greater than 100 µM for the first, greater than 10 µM for the second.

In the case of `N#CC(C#N)=C1CCCS(=O)(=O)c2ccccc21`, the TGI is reported as greater than 100 µM.

Tested on: SNB-75 CNS
Assay: inhibition of tumour cell growth, NCI panel, 48 h

First: COC(=O)C1CC(C=[N+](C)C)=C(SC)N1 (configuration not stated)
Second: Cc1cccc(C[C@@]2(SCc3ccccc3)C(C)(C)[C@@H]3CC[C@@]2(C)C3)n1
The TGI of the first is higher: greater than 100 µM for the first, 34.4 µM for the second.

`Brc1ccc2c3c1[C@@H]1O[C@@H]1c1cccc(c1-3)[C@@H]1O[C@H]21` and `O=c1c2cc(I)ccc2[nH]c(=S)n1Cc1ccccc1` are within 1.5-fold of each other in TGI: 45.2 µM for the first, 54.4 µM for the second.

`O=C(O)Cc1ccc2nc(COC(=O)c3ccccc3)sc2c1` and `CCOC(=O)c1cnc2[nH]ccn2c1=O` cannot be ordered by TGI: greater than 100 µM for the first, greater than 10 µM for the second.

Compound `N#CC(C#N)=C1CCCS(=O)(=O)c2ccccc21` has a TGI greater than 100 µM.

Tested on: SR leukemia
Assay: inhibition of tumour cell growth, NCI panel, 48 h

First: COC(=O)C1CC(C=[N+](C)C)=C(SC)N1 (configuration not stated)
Second: Cc1cccc(C[C@@]2(SCc3ccccc3)C(C)(C)[C@@H]3CC[C@@]2(C)C3)n1
The TGI of the first is higher: greater than 100 µM for the first, 31.9 µM for the second.

`Brc1ccc2c3c1[C@@H]1O[C@@H]1c1cccc(c1-3)[C@@H]1O[C@H]21` and `O=c1c2cc(I)ccc2[nH]c(=S)n1Cc1ccccc1` cannot be ordered by TGI: greater than 100 µM for the first, greater than 100 µM for the second.

`O=C(O)Cc1ccc2nc(COC(=O)c3ccccc3)sc2c1` and `CCOC(=O)c1cnc2[nH]ccn2c1=O` cannot be ordered by TGI: greater than 100 µM for the first, greater than 10 µM for the second.

For `N#CC(C#N)=C1CCCS(=O)(=O)c2ccccc21`, the TGI was greater than 100 µM.

Tested on: SW-620 colon
Assay: inhibition of tumour cell growth, NCI panel, 48 h

Going from `COC(=O)C1CC(C=[N+](C)C)=C(SC)N1` (configuration not stated) to `Cc1cccc(C[C@@]2(SCc3ccccc3)C(C)(C)[C@@H]3CC[C@@]2(C)C3)n1`, the TGI falls from greater than 100 µM to 30.5 µM.

Compared with `Brc1ccc2c3c1[C@@H]1O[C@@H]1c1cccc(c1-3)[C@@H]1O[C@H]21`, `O=c1c2cc(I)ccc2[nH]c(=S)n1Cc1ccccc1` is higher in TGI: 46.9 µM for the first, greater than 100 µM for the second.

`O=C(O)Cc1ccc2nc(COC(=O)c3ccccc3)sc2c1` and `CCOC(=O)c1cnc2[nH]ccn2c1=O` cannot be ordered by TGI: greater than 100 µM for the first, greater than 10 µM for the second.

`N#CC(C#N)=C1CCCS(=O)(=O)c2ccccc21` gave a TGI greater than 100 µM.

Tested on: T-47D breast
Assay: inhibition of tumour cell growth, NCI panel, 48 h

First: COC(=O)C1CC(C=[N+](C)C)=C(SC)N1 (configuration not stated)
Second: Cc1cccc(C[C@@]2(SCc3ccccc3)C(C)(C)[C@@H]3CC[C@@]2(C)C3)n1
The TGI of the first is higher: greater than 100 µM for the first, 24.9 µM for the second.

Compared with `Brc1ccc2c3c1[C@@H]1O[C@@H]1c1cccc(c1-3)[C@@H]1O[C@H]21`, `O=c1c2cc(I)ccc2[nH]c(=S)n1Cc1ccccc1` is higher in TGI: 45 µM for the first, greater than 100 µM for the second.

`O=C(O)Cc1ccc2nc(COC(=O)c3ccccc3)sc2c1` and `CCOC(=O)c1cnc2[nH]ccn2c1=O` cannot be ordered by TGI: greater than 100 µM for the first, greater than 10 µM for the second.

In the case of `N#CC(C#N)=C1CCCS(=O)(=O)c2ccccc21`, the TGI is reported as greater than 100 µM.

Tested on: TK-10 renal
Assay: inhibition of tumour cell growth, NCI panel, 48 h

Going from `COC(=O)C1CC(C=[N+](C)C)=C(SC)N1` (configuration not stated) to `Cc1cccc(C[C@@]2(SCc3ccccc3)C(C)(C)[C@@H]3CC[C@@]2(C)C3)n1`, the TGI falls from greater than 100 µM to 34.5 µM.

Compared with `Brc1ccc2c3c1[C@@H]1O[C@@H]1c1cccc(c1-3)[C@@H]1O[C@H]21`, `O=c1c2cc(I)ccc2[nH]c(=S)n1Cc1ccccc1` is lower in TGI: greater than 100 µM for the first, 42 µM for the second.

`O=C(O)Cc1ccc2nc(COC(=O)c3ccccc3)sc2c1` and `CCOC(=O)c1cnc2[nH]ccn2c1=O` cannot be ordered by TGI: greater than 100 µM for the first, greater than 10 µM for the second.

`N#CC(C#N)=C1CCCS(=O)(=O)c2ccccc21` was tested, and the TGI was greater than 100 µM.

Tested on: U251 CNS
Assay: inhibition of tumour cell growth, NCI panel, 48 h

Compared with `COC(=O)C1CC(C=[N+](C)C)=C(SC)N1` (configuration not stated), `Cc1cccc(C[C@@]2(SCc3ccccc3)C(C)(C)[C@@H]3CC[C@@]2(C)C3)n1` is lower in TGI: greater than 100 µM for the first, 30.2 µM for the second.

First: Brc1ccc2c3c1[C@@H]1O[C@@H]1c1cccc(c1-3)[C@@H]1O[C@H]21
Second: O=c1c2cc(I)ccc2[nH]c(=S)n1Cc1ccccc1
The TGI of the first is lower: 40.2 µM for the first, greater than 100 µM for the second.

`O=C(O)Cc1ccc2nc(COC(=O)c3ccccc3)sc2c1` and `CCOC(=O)c1cnc2[nH]ccn2c1=O` cannot be ordered by TGI: greater than 100 µM for the first, greater than 10 µM for the second.

Work on `N#CC(C#N)=C1CCCS(=O)(=O)c2ccccc21` yielded a TGI greater than 100 µM.

Tested on: UACC-257 melanoma
Assay: inhibition of tumour cell growth, NCI panel, 48 h

First: COC(=O)C1CC(C=[N+](C)C)=C(SC)N1 (configuration not stated)
Second: Cc1cccc(C[C@@]2(SCc3ccccc3)C(C)(C)[C@@H]3CC[C@@]2(C)C3)n1
The TGI of the first is higher: greater than 100 µM for the first, 29.9 µM for the second.

First: Brc1ccc2c3c1[C@@H]1O[C@@H]1c1cccc(c1-3)[C@@H]1O[C@H]21
Second: O=c1c2cc(I)ccc2[nH]c(=S)n1Cc1ccccc1
The TGI of the first is lower: 98.4 µM for the first, greater than 100 µM for the second.

`O=C(O)Cc1ccc2nc(COC(=O)c3ccccc3)sc2c1` and `CCOC(=O)c1cnc2[nH]ccn2c1=O` cannot be ordered by TGI: greater than 100 µM for the first, greater than 10 µM for the second.

Compound `N#CC(C#N)=C1CCCS(=O)(=O)c2ccccc21` has a TGI greater than 100 µM.

Tested on: UACC-62 melanoma
Assay: inhibition of tumour cell growth, NCI panel, 48 h

First: COC(=O)C1CC(C=[N+](C)C)=C(SC)N1 (configuration not stated)
Second: Cc1cccc(C[C@@]2(SCc3ccccc3)C(C)(C)[C@@H]3CC[C@@]2(C)C3)n1
The TGI of the first is higher: greater than 100 µM for the first, 35.5 µM for the second.

First: Brc1ccc2c3c1[C@@H]1O[C@@H]1c1cccc(c1-3)[C@@H]1O[C@H]21
Second: O=c1c2cc(I)ccc2[nH]c(=S)n1Cc1ccccc1
The TGI of the first is lower: 35.4 µM for the first, greater than 100 µM for the second.

`O=C(O)Cc1ccc2nc(COC(=O)c3ccccc3)sc2c1` and `CCOC(=O)c1cnc2[nH]ccn2c1=O` cannot be ordered by TGI: greater than 100 µM for the first, greater than 10 µM for the second.

In the case of `N#CC(C#N)=C1CCCS(=O)(=O)c2ccccc21`, the TGI is reported as greater than 100 µM.

Tested on: UO-31 renal
Assay: inhibition of tumour cell growth, NCI panel, 48 h

Compared with `COC(=O)C1CC(C=[N+](C)C)=C(SC)N1` (configuration not stated), `Cc1cccc(C[C@@]2(SCc3ccccc3)C(C)(C)[C@@H]3CC[C@@]2(C)C3)n1` is lower in TGI: greater than 100 µM for the first, 37.2 µM for the second.

First: Brc1ccc2c3c1[C@@H]1O[C@@H]1c1cccc(c1-3)[C@@H]1O[C@H]21
Second: O=c1c2cc(I)ccc2[nH]c(=S)n1Cc1ccccc1
The TGI of the first is 24-fold higher: 43.8 µM for the first, 1.83 µM for the second.

`O=C(O)Cc1ccc2nc(COC(=O)c3ccccc3)sc2c1` and `CCOC(=O)c1cnc2[nH]ccn2c1=O` cannot be ordered by TGI: greater than 100 µM for the first, greater than 10 µM for the second.

`N#CC(C#N)=C1CCCS(=O)(=O)c2ccccc21` gave a TGI greater than 100 µM.

Source: PubChem BioAssay (NCI)
